Results as given in patent US20080039425A1, “Methods and Compositions to Reduce Tissue Irritation in Parenteral Formulations” (ALLOS THERAPEUTICS, INC., priority 2004, published 2008).

System: rat tail vein
Test: Rat-tail model, histopathological evaluation of tissue damage
Type: in vivo
Conditions: for Histopathology Score: rat tail vein, relative to efaproxiral at 38 mg/mL
Method: In order to determine if the effects seen in the NMR correlated to an ability of the dextrins to protect tissue, an animal model was designed. […] A 38 mg/mL efaproxiral solution was administered as the positive control. A saline solution was used as the negative control.
Maltodextrin has the property of being a safer molecule than its cyclic relative.

SMILES	Tissue damage in rat tail (in words) (38 mg/mL efaproxiral, compared with saline negative control)	Histopathology Score (efaproxiral 20 mg/mL) [%]	Histopathology Score (efaproxiral 38 mg/mL (positive control)) [%]
Cc1cc(C)cc(NC(=O)Cc2ccc(OC(C)(C)C(=O)[O-])cc2)c1.[Na+] [efaproxiral-Na]	significant damage was observed beyond that associated with the administration		
Cc1cc(C)cc(NC(=O)Cc2ccc(OC(C)(C)C(=O)O)cc2)c1 [Efaproxiral, 2-[4-[2-[(3,5-dimethylphenyl)amino]-2-oxoethyl]phenoxy]-2-methyl-propionic acid]		24	100
